Assay results reported in patent publication US9586993B2, “CD44v6-derived peptides for treating pancreatic cancer” (AMCURE GMBH, priority 2012, dated 2017).

Key:
[1] = tested on: c-Met and Erk phosphorylation; experiment: HGF-induced c-Met and Erk phosphorylation in HT29 cells (western blot); type: cell-based, human
Description: FIG. 12: A: Activation of Met and signal transduction induced by HGF depends on CD44v6 in L3.6p1 cells. L3.6p1 cells were treated with the human v6 peptide (human v6 14mer) or the rat v6 peptide as control prior to induction with 10 ng/ml HGF. Activation of Met and ERK was determined in western blot. The numbers refer to the fold induction. The experiment was repeated at least 5 times. B: Activation of c-Met and signal transduction induced by HGF depends on CD44v6 HeLa cells. Starved HeLa cells respectively HT29 cells were incubated with the v6 peptide (human v6 14mer) or a control peptide for 10 minutes at 37° C. and then induced with 25 ng/ml of HGF for the indicated time points. Cells were then either lysed and the lysates were subjected to Western Blot analysis for phospho-Met and Met. C: Activation of c-Met and signal transduction induced by HGF depends on CD44v6 in HT29 cells. HGF-induced c-Met and Erk phosphorylation in HT29 was determined as described above using phospho-specific antibodies. […]
The contribution of CD44v6 to Met signaling in the human epithelial pancreatic cancer cells L3.6p1 (derived from Colo 357), the cervix carcinoma cells HeLa and the colon cancer cells HT29 were analysed using the CD44v6 peptide (v6 14mer; v6 5mer tested as well, data not shown).

[2] = tested on: L3.6p1 pancreatic carcinoma cells; experiment: Human orthotopic model, L3.6p1 cells in the pancreas of nude mice; type: in vivo, mouse; conditions: for outgrowth / size of the primary tumor: 20 μg per injection i.p. three times per week for three weeks
Description: In the case of the human orthotopic model, L3.6p1 pancreatic carcinoma cells (passage 24-26) were suspended in Hank's balanced salt solution (Invitrogen, Karlsruhe, Germany) after trypsinization. The cells were injected orthotopically in the pancreas of male nude mice as described (Bruns C J et al. (1999) Neoplasia 1(1):50-62). Two groups of 15 mice each were injected i.p. 7 days later with either the human v6 peptide respectively rat control peptide (20 μg). For all experiments described and depicted herein either the rat 14mer control peptide or the human 14mer peptide were used. All experiments were then repeated with the rat 5mer control peptide or the human 5mer peptide (N-R-W-H-E, SEQ ID NO: 2). […] The injection was repeated three times per week for 21 days. Two days after the last treatment the animals were killed.
7 μm thick paraffin sections were deparaffinized and rehydrated. For P-Met staining antigen unmasking was achieved by boiling the slides in 1 mM EDTA pH 8.0 followed by incubation for 15 minutes at a sub-boiling temperature, for CD31 staining the sections were treated with Proteinase K (8 μg/ml) for 10 min at 37° C. For immunofluorescence staining of P-Met, unspecific binding was blocked with 5% goat serum (DAKO, Glostrup, Denmark) (diluted in 1×PBS/0.3% Triton X-100) for 60 minutes. In the case of immunohistochemistry, endogenous peroxidases were at first blocked with 3% H2O2 in PBS followed by incubation with biotin blocking system (Dako, Glostrup, Denmark) and then unspecific binding was inhibited by incubation with 5% FCS in PBS. The sections were incubated with the P-Met antibody (D26, dilution 1:50 in 1×PBS/1% BSA/0.3% Triton X-100), Met antibody (C-28, dilution 1:50), GFP antibody (sc-101525, dilution 1:50) or antibody (5 μg/ml) over night or VFF18 (5 μg/ml) o/n at 4° C. After washing in PBS the sections were incubated with Alexa Fluor R 546 goat anti-rabbit (in case of immunofluorescence P-Met and Met staining, dilution 1:500) or a biotinylated secondary antibody (for immunohistochemical stainings rabbit anti-rat antibody for VFF18 and CD31, goat anti-rabbit for P-Met, cleaved Caspase-3 and cleaved Caspase-8 and rabbit anti-mouse for GFP, dilution 1:500) for 45 minutes. For DAB (3,3′-diaminobenzidine) staining the sections were treated with a streptavidin-peroxidase conjugate (Dako, Glostrup, Denmark) and developed with DAB substrate system (3,3′-diaminobenzidine; Biozol, Eching, Germany) For immunofluorescence DAPI was used for nuclear staining.
The three CD44v6 specific compounds (v6 5mer, PEG840-v6 5mer and PEG2000-v6 5mer of human origin) and a control peptide were applied in three concentrations (2 μg, 20 μg, 200 μg per injection) three times per week i.p. for 4 weeks. One week before start of the treatment the L3.6p1 tumor cells were orthotopically implanted into nude mice.
Animals were implanted orthotopically with L3.6p1 cells. Tumor growth was allowed for one week before the treatment with the linear v6 14mer, the cyclic v6 8mer as well as the control peptide (rat v6 14mer) was started. All peptides were injected three times per week at a concentration of 0.2, 2 and 10 μg per injection for 3 weeks. At the end of the treatment animals were sacrificed.
A comparison of different CD44v6 peptide derivatives was performed in animals bearing a orthotopic L3.6p1 tumor. 10 groups of 5 animals each received a dose of 20 μg peptide per injection three times per week for 3 weeks with the compounds listed in Table 4. Three weeks after starting the treatment the animals were sacrificed and analyzed for macroscopic metastases and tumor volume.

Erk phosphorylation = experiment: EGF- and TGFα-induced Erk phosphorylation in MCF7 cells; type: cell-based, human

Sequence: KEQWFGNRWHEGYR [human 14mer, human CD44v6 14mer peptide]
- inhibition of HGF-induced activation of Met and Erk [1]: able to prevent activation of Met and of its downstream target Erk
- metastasis formation (liver) ([2]; 0.2 μg per injection three times per week for 3 weeks): showed liver metastases but the average number of metastases per animal was reduced
- metastasis formation (liver) ([2]; 2 μg per injection i.p. three times per week): showed liver metastases but the average number of metastases per animal was reduced
- metastasis formation (liver) ([2]; 10 μg per injection three times per week for 3 weeks): complete inhibition of metastatic spreading
- tumor angiogenesis (vessel number and vessel size, CD31 staining) ([2]; 20 μg i.p. three times per week): decreased angiogenesis
- Met activation in the tumor (immunofluorescence for phospho-Met and Met) ([2]; 20 μg i.p. three times per week for three weeks): completely repressed Met activation
- outgrowth / size of the primary tumor ([2]; start one week after implantation, listed as CD44v6 14mer): significant reduction in tumor growth
- outgrowth / size of the primary tumor ([2]; start one week after implantation, listed as human v6 peptide): strongly repressed
- outgrowth / size of the primary tumor ([2]; start one week after implantation, listed as v6 14mer): strongest reduction of tumor size
- metastasis formation (liver) ([2]; 20 μg per injection i.p. three times per week, start one week after implantation): complete inhibition of metastasis
- metastasis formation (liver) ([2]; 20 μg per injection i.p. three times per week, start one week after implantation, listed as human-specific peptide): completely inhibited metastasis formation within the liver
- Erk phosphorylation upon EGF treatment (Erk phosphorylation): blocking of Erk phosphorylation
- Erk phosphorylation upon TGFα induction (Erk phosphorylation): not upon TGFα induction
